Measurements taken from PubChem BioAssay AID1745844 (Carcinogenic Potency Database (CPDB), 2022).
Active and inactive are the calls of the source. The rule behind the calls is not given here.

Test system: rodent lifetime carcinogenesis bioassay, tumor incidence TD50
Experiment: chronic cancer bioassays in animals – CPDB, compiled studies (AID 1745844)

CCN(CC)C(=S)SSC(=S)N(CC)CC
TD50 (mouse, strain B6AKF1, females, oral dosing, site: any site (literature study), lesion: several types, types named in the paper, dosed 76 weeks, study length 76 weeks): 1940 mg/kg/day | TD50 (mouse, strain B6AKF1, females, oral dosing, site: lung, lesion: adenoma, dosed 76 weeks, study length 76 weeks): 4140 mg/kg/day | TD50 (mouse, strain B6AKF1, males, oral dosing, site: any site (literature study), lesion: several types, types named in the paper, dosed 76 weeks, study length 76 weeks): 10.1 mg/kg/day | TD50 (mouse, strain B6AKF1, males, oral dosing, site: liver, lesion: hepatoma, dosed 76 weeks, study length 76 weeks): 197 mg/kg/day | TD50 (mouse, strain B6AKF1, males, oral dosing, site: subcutaneous tissue, lesion: fibrosarcoma, dosed 76 weeks, study length 76 weeks): 15.4 mg/kg/day | carcinogen call (mouse, strain B6C3F1, females, in feed, site: any site (literature study), lesion: several types, types named in the paper, dosed 108 weeks, study length 108 weeks): negative (inactive) | TD50 (mouse, strain B6C3F1, females, in feed, site: liver, lesion: hepatocellular adenoma + hepatocellular carcinoma + neoplastic nodule, dosed 108 weeks, study length 108 weeks): 120 mg/kg/day | TD50 (mouse, strain B6C3F1, females, in feed, site: lung, lesion: alveolar/bronchiolar adenoma + alveolar/bronchiolar carcinoma, dosed 108 weeks, study length 108 weeks): 323 mg/kg/day | TD50 (mouse, strain B6C3F1, females, oral dosing, site: any site (literature study), lesion: several types, types named in the paper, dosed 76 weeks, study length 76 weeks): 64.5 mg/kg/day | TD50 (mouse, strain B6C3F1, females, oral dosing, site: liver, lesion: hepatoma, dosed 76 weeks, study length 76 weeks): 283 mg/kg/day | TD50 (mouse, strain B6C3F1, females, oral dosing, site: lung, lesion: adenoma, dosed 76 weeks, study length 76 weeks): 283 mg/kg/day | TD50 (mouse, strain B6C3F1, females, oral dosing, site: lung, lesion: carcinoma, dosed 76 weeks, study length 76 weeks): 283 mg/kg/day | TD50 (mouse, strain B6C3F1, females, oral dosing, site: lung, lesion: several types, types named in the paper, dosed 76 weeks, study length 76 weeks): 138 mg/kg/day | carcinogen call (mouse, strain B6C3F1, males, in feed, site: any site (literature study), lesion: several types, types named in the paper, dosed 108 weeks, study length 108 weeks): negative (inactive) | TD50 (mouse, strain B6C3F1, males, oral dosing, site: any site (literature study), lesion: several types, types named in the paper, dosed 76 weeks, study length 76 weeks): 17 mg/kg/day | TD50 (mouse, strain B6C3F1, males, oral dosing, site: liver, lesion: hepatoma, dosed 76 weeks, study length 76 weeks): 23.7 mg/kg/day | TD50 (mouse, strain B6C3F1, males, oral dosing, site: lung, lesion: adenoma, dosed 76 weeks, study length 76 weeks): 43.2 mg/kg/day | carcinogen call (rat, strain Charles River CD (Sprague-Dawley), females, in feed, site: any site (literature study), lesion: one or several types, types not named, dosed 104 weeks, study length 104 weeks): negative (inactive) | TD50 (rat, strain Charles River CD (Sprague-Dawley), females, in feed, site: any site (literature study), lesion: several types, types named in the paper, dosed 78 weeks, study length 78 weeks): 193 mg/kg/day | TD50 (rat, strain Charles River CD (Sprague-Dawley), females, in feed, site: liver, lesion: neoplastic nodule, dosed 104 weeks, study length 104 weeks): 41100 mg/kg/day (inactive) | TD50 (rat, strain Charles River CD (Sprague-Dawley), females, in feed, site: mammary gland, lesion: several types, types named in the paper, dosed 78 weeks, study length 78 weeks): 68.9 mg/kg/day | carcinogen call (rat, strain Charles River CD (Sprague-Dawley), males, in feed, site: any site (literature study), lesion: one or several types, types not named, dosed 104 weeks, study length 104 weeks): negative (inactive) | carcinogen call (rat, strain Charles River CD (Sprague-Dawley), males, in feed, site: liver, lesion: hepatocellular carcinoma, dosed 104 weeks, study length 104 weeks): negative (inactive) | TD50 (rat, strain Charles River CD (Sprague-Dawley), males, in feed, site: liver, lesion: hepatocellular tumor, dosed 78 weeks, study length 78 weeks): 366 mg/kg/day | TD50 (rat, strain Charles River CD (Sprague-Dawley), males, in feed, site: liver, lesion: neoplastic nodule, dosed 104 weeks, study length 104 weeks): 678 mg/kg/day (inactive) | carcinogen call (rat, strain Fischer 344, females, in feed, site: any site (literature study), lesion: several types, types named in the paper, dosed 107 weeks, study length 107 weeks): negative (inactive) | TD50 (rat, strain Fischer 344, females, in feed, site: liver, lesion: hepatocellular adenoma + hepatocellular carcinoma + neoplastic nodule, dosed 107 weeks, study length 107 weeks): 1430 mg/kg/day | carcinogen call (rat, strain Fischer 344, males, in feed, site: any site (literature study), lesion: several types, types named in the paper, dosed 107 weeks, study length 107 weeks): negative (inactive)

C=CCCl
TD50 (mouse, strain B6C3F1, females, by gavage, site: any site (literature study), lesion: several types, types named in the paper, dosed 78 weeks, study length 91 weeks): 343 mg/kg/day | TD50 (mouse, strain B6C3F1, females, by gavage, site: liver, lesion: hepatocellular adenoma + hepatocellular carcinoma + neoplastic nodule, dosed 78 weeks, study length 91 weeks): 2180 mg/kg/day | TD50 (mouse, strain B6C3F1, females, by gavage, site: lung, lesion: alveolar/bronchiolar adenoma + alveolar/bronchiolar carcinoma, dosed 78 weeks, study length 91 weeks): 1250 mg/kg/day | TD50 (mouse, strain B6C3F1, females, by gavage, site: stomach, lesion: squamous-cell carcinoma + squamous-cell papilloma, dosed 78 weeks, study length 91 weeks): 706 mg/kg/day | TD50 (mouse, strain B6C3F1, males, by gavage, site: any site (literature study), lesion: several types, types named in the paper, dosed 67 weeks, study length 91 weeks): 184 mg/kg/day | TD50 (mouse, strain B6C3F1, males, by gavage, site: liver, lesion: hepatocellular adenoma + hepatocellular carcinoma + neoplastic nodule, dosed 67 weeks, study length 91 weeks): 457 mg/kg/day | TD50 (mouse, strain B6C3F1, males, by gavage, site: stomach, lesion: squamous-cell carcinoma + squamous-cell papilloma, dosed 67 weeks, study length 91 weeks): 727 mg/kg/day | TD50 (rat, strain Osborne-Mendel, females, by gavage, site: any site (literature study), lesion: several types, types named in the paper, dosed 78 weeks, study length 110 weeks): 35.2 mg/kg/day | TD50 (rat, strain Osborne-Mendel, males, by gavage, site: any site (literature study), lesion: several types, types named in the paper, dosed 78 weeks, study length 110 weeks): 28.1 mg/kg/day

O[C@H]([C@H](O)[C@@H](O)CBr)[C@H](O)CBr
TD50 (mouse, strain Swiss, females, i.p., site: all sites, lesion: leukemia, dosed 26 weeks, study length 78 weeks): 46.3 mg/kg/day | TD50 (mouse, strain Swiss, females, i.p., site: all sites, lesion: lymphosarcoma, dosed 26 weeks, study length 78 weeks): 12.2 mg/kg/day | TD50 (mouse, strain Swiss, females, i.p., site: any site (literature study), lesion: benign tumor, dosed 26 weeks, study length 78 weeks): 24.5 mg/kg/day | TD50 (mouse, strain Swiss, females, i.p., site: any site (literature study), lesion: malignant tumor, dosed 26 weeks, study length 78 weeks): 4.75 mg/kg/day | TD50 (mouse, strain Swiss, females, i.p., site: any site (literature study), lesion: several types, types named in the paper, dosed 26 weeks, study length 78 weeks): 2.45 mg/kg/day | TD50 (mouse, strain Swiss, females, i.p., site: lung, lesion: several types, types named in the paper, dosed 26 weeks, study length 78 weeks): 9.23 mg/kg/day | TD50 (mouse, strain Swiss, males, i.p., site: all sites, lesion: lymphatic leukemia, dosed 26 weeks, study length 78 weeks): 32.4 mg/kg/day | TD50 (mouse, strain Swiss, males, i.p., site: all sites, lesion: lymphosarcoma, dosed 26 weeks, study length 78 weeks): 17.6 mg/kg/day | TD50 (mouse, strain Swiss, males, i.p., site: any site (literature study), lesion: malignant tumor, dosed 26 weeks, study length 78 weeks): 15.2 mg/kg/day | TD50 (mouse, strain Swiss, males, i.p., site: any site (literature study), lesion: several types, types named in the paper, dosed 26 weeks, study length 78 weeks): 12.7 mg/kg/day | TD50 (mouse, strain Swiss, males, i.p., site: lung, lesion: several types, types named in the paper, dosed 26 weeks, study length 78 weeks): 13.5 mg/kg/day | TD50 (rat, strain Charles River CD (Sprague-Dawley), males, i.p., site: all sites, lesion: lymphosarcoma, dosed 26 weeks, study length 78 weeks): 182 mg/kg/day | TD50 (rat, strain Charles River CD (Sprague-Dawley), males, i.p., site: any site (literature study), lesion: malignant tumor, dosed 26 weeks, study length 78 weeks): 5.05 mg/kg/day | TD50 (rat, strain Charles River CD (Sprague-Dawley), males, i.p., site: any site (literature study), lesion: several types, types named in the paper, dosed 26 weeks, study length 78 weeks): 3.13 mg/kg/day | TD50 (rat, strain Charles River CD (Sprague-Dawley), males, i.p., site: mammary gland, lesion: squamous-cell carcinoma, dosed 26 weeks, study length 78 weeks): 182 mg/kg/day | TD50 (rat, strain Charles River CD (Sprague-Dawley), males, i.p., site: peritoneum, lesion: sarcoma, dosed 26 weeks, study length 78 weeks): 59.2 mg/kg/day | TD50 (rat, strain Charles River CD (Sprague-Dawley), males, i.p., site: skin, lesion: several types, types named in the paper, dosed 26 weeks, study length 78 weeks): 8.37 mg/kg/day

FCCl
TD50 (rat, strain Alpk:APfSD, females, by gavage, site: stomach, lesion: carcinoma, dosed 52 weeks, study length 108 weeks): 2710 mg/kg/day | TD50 (rat, strain Alpk:APfSD, females, by gavage, site: stomach, lesion: fibrosarcoma, dosed 52 weeks, study length 108 weeks): 119 mg/kg/day | TD50 (rat, strain Alpk:APfSD, females, by gavage, site: stomach, lesion: sarcoma, dosed 52 weeks, study length 108 weeks): 2710 mg/kg/day | TD50 (rat, strain Alpk:APfSD, females, by gavage, site: stomach, lesion: several types, types named in the paper, dosed 52 weeks, study length 108 weeks): 26.5 mg/kg/day | TD50 (rat, strain Alpk:APfSD, females, by gavage, site: stomach, lesion: squamous-cell carcinoma, dosed 52 weeks, study length 108 weeks): 69.4 mg/kg/day | TD50 (rat, strain Alpk:APfSD, males, by gavage, site: stomach, lesion: fibrosarcoma, dosed 52 weeks, study length 100 weeks): 88.1 mg/kg/day | TD50 (rat, strain Alpk:APfSD, males, by gavage, site: stomach, lesion: several types, types named in the paper, dosed 52 weeks, study length 100 weeks): 28.5 mg/kg/day | TD50 (rat, strain Alpk:APfSD, males, by gavage, site: stomach, lesion: squamous-cell carcinoma, dosed 52 weeks, study length 100 weeks): 46.9 mg/kg/day

CCCl
TD50 (mouse, strain B6C3F1, females, inhaled, site: all sites, lesion: malignant lymphoma, histiocytic type + malignant lymphoma, mixed type + malignant lymphoma, lymphocytic type + malignant lymph, dosed 100 weeks, study length 100 weeks): 9960 mg/kg/day | TD50 (mouse, strain B6C3F1, females, inhaled, site: any site (literature study), lesion: several types, types named in the paper, dosed 100 weeks, study length 100 weeks): 1380 mg/kg/day | TD50 (mouse, strain B6C3F1, females, inhaled, site: liver, lesion: hepatocellular adenoma + hepatocellular carcinoma + neoplastic nodule, dosed 100 weeks, study length 100 weeks): 7220 mg/kg/day | TD50 (mouse, strain B6C3F1, females, inhaled, site: liver, lesion: hepatocellular adenoma + hepatocellular carcinoma, dosed 100 weeks, study length 100 weeks): 7220 mg/kg/day | TD50 (mouse, strain B6C3F1, females, inhaled, site: liver, lesion: hepatocellular carcinoma, dosed 100 weeks, study length 100 weeks): 7580 mg/kg/day | TD50 (mouse, strain B6C3F1, females, inhaled, site: lung, lesion: alveolar/bronchiolar adenoma + alveolar/bronchiolar carcinoma, dosed 100 weeks, study length 100 weeks): 8640 mg/kg/day | TD50 (mouse, strain B6C3F1, females, inhaled, site: uterus, lesion: carcinoma, dosed 100 weeks, study length 100 weeks): 1810 mg/kg/day | TD50 (mouse, strain B6C3F1, males, inhaled, site: any site (literature study), lesion: several types, types named in the paper, dosed 100 weeks, study length 100 weeks): 10100 mg/kg/day | TD50 (mouse, strain B6C3F1, males, inhaled, site: liver, lesion: hepatocellular adenoma + hepatocellular carcinoma + neoplastic nodule, dosed 100 weeks, study length 100 weeks): 34100 mg/kg/day | TD50 (mouse, strain B6C3F1, males, inhaled, site: lung, lesion: alveolar/bronchiolar adenoma + alveolar/bronchiolar carcinoma, dosed 100 weeks, study length 100 weeks): 9910 mg/kg/day | TD50 (mouse, strain B6C3F1, males, inhaled, site: lung, lesion: alveolar/bronchiolar adenoma, dosed 100 weeks, study length 100 weeks): 12700 mg/kg/day | TD50 (rat, strain Fischer 344, females, inhaled, site: any site (literature study), lesion: several types, types named in the paper, dosed 102 weeks, study length 105 weeks): 2660 mg/kg/day | TD50 (rat, strain Fischer 344, females, inhaled, site: brain, lesion: astrocytoma, malignant, dosed 102 weeks, study length 105 weeks): 21000 mg/kg/day | TD50 (rat, strain Fischer 344, females, inhaled, site: uterus, lesion: endometrial stromal polyp, dosed 102 weeks, study length 105 weeks): 10200 mg/kg/day | TD50 (rat, strain Fischer 344, males, inhaled, site: any site (literature study), lesion: several types, types named in the paper, dosed 102 weeks, study length 105 weeks): 1600 mg/kg/day | TD50 (rat, strain Fischer 344, males, inhaled, site: liver, lesion: hepatocellular adenoma + hepatocellular carcinoma + neoplastic nodule, dosed 102 weeks, study length 105 weeks): 47700 mg/kg/day | TD50 (rat, strain Fischer 344, males, inhaled, site: skin, lesion: basal-cell carcinoma + sebaceous adenoma + trichoepithelioma, dosed 102 weeks, study length 105 weeks): 3210 mg/kg/day | TD50 (rat, strain Fischer 344, males, inhaled, site: skin, lesion: basal-cell carcinoma, dosed 102 weeks, study length 105 weeks): 4970 mg/kg/day
